Data as given in patent publication US10399989B2, “Pyrazolopyrimidine derivatives as BTK inhibitors for the treatment of cancer” (Loxo Oncology, Inc., priority 2016, dated 2019).
Read-outs that look alike come from different tables or passages of the source.

Experiments:
[1] = molecular target: BTK^WT (Homo sapiens (Human), UniProt Q06187); test: BTK^WT binding affinity (TR-FRET, LanthaScreen)
Description: BTK^WT binding affinity of each compound tested was determined using a time-resolved fluorescence resonance energy transfer (TR-FRET) methodology. 2.5 nM Recombinant BTK^WT kinase, varying concentrations of inhibitor, 2 nM LanthaScreen™ Eu anti-His Antibody and 15 nM Kinase Tracer 236 was incubated in 1× LanthaScreen™ Kinase Buffer A for 5 h. Recombinant BTK kinase and all LanthaScreen™ components were purchased from Invitrogen. Measurements were performed in a reaction volume of 30 μL using half-area 96-well assay plates. The TR-FRET signal was read on a plate reader with an excitation wavelength of 340 nm and detection wavelengths of 615 and 665 nm. Binding affinity was determined for each compound by measuring TR-FRET signal at various concentrations of compound and plotting the relative fluorescence units against the inhibitor concentration to estimate the IC50 from log [Inhibitor] vs response using the Variable Slope model in Graphpad prism from Graphpad software (SanDiego, Calif.).

[2] = molecular target: BTK^C481S (Homo sapiens (Human), UniProt Q06187, C481S); test: BTK^C481S binding affinity (TR-FRET, LanthaScreen); details: 5 h incubation
Description: BTK^C481S binding affinity of each compound tested was determined using a time-resolved fluorescence resonance energy transfer (TR-FRET) methodology. 5 nM Recombinant […] kinase, varying concentrations of inhibitor, 2 nM LanthaScreen™ Eu anti-His Antibody and 30 nM Kinase Tracer 236 was incubated in 1× LanthaScreen™ Kinase Buffer A for 5 h. Recombinant BTK^C481S kinase was purchased from SignalChem and all LanthaScreen™ components were purchased from Invitrogen. Measurements were performed in a reaction volume of 30 μL using half-area 96-well assay plates. The TR-FRET signal was read on a plate reader with an excitation wavelength of 340 nm and detection wavelengths of 615 and 665 nm. Binding affinity was determined for each compound by measuring TR-FRET signal at various concentrations of compound and plotting the relative fluorescence units against the inhibitor concentration to estimate the IC50 from log [Inhibitor] vs response using the Variable Slope model in Graphpad prism from Graphpad software (SanDiego, Calif.).

[3] = molecular target: EGFR (Homo sapiens (Human), UniProt P00533); test: EGFR binding affinity (TR-FRET, LanthaScreen); details: 5 h incubation
Description: EGFR binding affinity was determined using a time-resolved fluorescence resonance energy transfer (TR-FRET) methodology. 2.5 nM Recombinant EGFR, varying concentrations of inhibitor, 2 nM LanthaScreen™ Eu anti-GST Antibody and 3 nM Kinase Tracer 199 was incubated in 1× LanthaScreen™ Kinase Buffer A for 5 h. Recombinant EGFR and all LanthaScreen™ components were purchased from Invitrogen. Measurements were performed in a reaction volume of 30 μL using half-area 96-well assay plates. The TR-FRET signal was read on a plate reader with an excitation wavelength of 340 nm and detection wavelengths of 615 and 665 nm. Binding affinity was determined for each compound by measuring TR-FRET signal at various concentrations of compound and plotting the relative fluorescence units against the inhibitor concentration to estimate the IC50 from log [Inhibitor] vs response using the Variable Slope model in Graphpad prism from Graphpad software (SanDiego, Calif.).

[4] = tested on: OCI-Ly10 human DLBCL cells; test: OCI-Ly10 anti-proliferative activity (Resazurin, 72 h); format: cell-based; details: read-out: Proliferation OCI-Ly10-IC50
Description: Compounds were assayed for effects on the growth of OCI-Ly10 human DLBCL cells that are dependent on NFκB signalling. OCI-Ly10 cells were grown in suspension in T225 flasks, centrifuged and re-suspended in 2.5% FBS containing media. Cells were then plated at 7.5×10^3 cells per well in 96-well plates in varying concentrations of compound and incubated for 72 h at 37° C. An additional plate of cells to be used as the Day 0 read was seeded without compound addition, Resazurin was added to each well, incubated for 5 h and the fluorescence measured at 590 nm. After 72 h of compound treatment, Resazurin was added to each well of the compound treated plates, incubated for 5 h and the fluorescence measured at 590 nm. The IC50 was then calculated by subtracting the average Day 0 value from each well value from the treated plates, each treatment was then calculated as a percentage of the DMSO control and the percentages plotted against the inhibitor concentration to estimate the IC50 from log [Inhibitor] vs response using the Variable Slope model in Graphpad prism from Graphpad software (SanDiego, Calif.).

[5] = TR-FRET binding, 5 h incubation, read-out: BTK^WT IC50
[6] = Table 6, numeric values, read-out: BTK Binding IC50

Sequence of BTK^WT (Q06187 whole entry): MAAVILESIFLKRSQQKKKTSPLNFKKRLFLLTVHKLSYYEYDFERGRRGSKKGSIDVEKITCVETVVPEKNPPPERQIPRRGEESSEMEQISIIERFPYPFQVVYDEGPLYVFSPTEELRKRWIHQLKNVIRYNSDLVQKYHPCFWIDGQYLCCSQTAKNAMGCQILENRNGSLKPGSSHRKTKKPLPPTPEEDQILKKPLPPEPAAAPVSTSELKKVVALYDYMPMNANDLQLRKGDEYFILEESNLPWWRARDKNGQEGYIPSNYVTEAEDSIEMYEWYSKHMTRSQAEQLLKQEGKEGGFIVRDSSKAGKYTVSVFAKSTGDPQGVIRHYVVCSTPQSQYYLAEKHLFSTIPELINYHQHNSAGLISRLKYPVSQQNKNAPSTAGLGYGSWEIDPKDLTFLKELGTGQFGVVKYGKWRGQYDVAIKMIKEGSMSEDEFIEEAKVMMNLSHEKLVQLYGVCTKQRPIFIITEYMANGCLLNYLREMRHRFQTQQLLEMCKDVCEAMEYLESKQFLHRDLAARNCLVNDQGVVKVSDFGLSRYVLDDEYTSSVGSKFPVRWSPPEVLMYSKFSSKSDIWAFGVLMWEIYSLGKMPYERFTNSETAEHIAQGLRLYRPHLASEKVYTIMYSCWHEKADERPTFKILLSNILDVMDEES
Sequence of BTK^C481S (Q06187 whole entry C481S): as the sequence (Q06187 whole entry) above, with C481S counted along it
Sequence of EGFR (P00533 25-1210): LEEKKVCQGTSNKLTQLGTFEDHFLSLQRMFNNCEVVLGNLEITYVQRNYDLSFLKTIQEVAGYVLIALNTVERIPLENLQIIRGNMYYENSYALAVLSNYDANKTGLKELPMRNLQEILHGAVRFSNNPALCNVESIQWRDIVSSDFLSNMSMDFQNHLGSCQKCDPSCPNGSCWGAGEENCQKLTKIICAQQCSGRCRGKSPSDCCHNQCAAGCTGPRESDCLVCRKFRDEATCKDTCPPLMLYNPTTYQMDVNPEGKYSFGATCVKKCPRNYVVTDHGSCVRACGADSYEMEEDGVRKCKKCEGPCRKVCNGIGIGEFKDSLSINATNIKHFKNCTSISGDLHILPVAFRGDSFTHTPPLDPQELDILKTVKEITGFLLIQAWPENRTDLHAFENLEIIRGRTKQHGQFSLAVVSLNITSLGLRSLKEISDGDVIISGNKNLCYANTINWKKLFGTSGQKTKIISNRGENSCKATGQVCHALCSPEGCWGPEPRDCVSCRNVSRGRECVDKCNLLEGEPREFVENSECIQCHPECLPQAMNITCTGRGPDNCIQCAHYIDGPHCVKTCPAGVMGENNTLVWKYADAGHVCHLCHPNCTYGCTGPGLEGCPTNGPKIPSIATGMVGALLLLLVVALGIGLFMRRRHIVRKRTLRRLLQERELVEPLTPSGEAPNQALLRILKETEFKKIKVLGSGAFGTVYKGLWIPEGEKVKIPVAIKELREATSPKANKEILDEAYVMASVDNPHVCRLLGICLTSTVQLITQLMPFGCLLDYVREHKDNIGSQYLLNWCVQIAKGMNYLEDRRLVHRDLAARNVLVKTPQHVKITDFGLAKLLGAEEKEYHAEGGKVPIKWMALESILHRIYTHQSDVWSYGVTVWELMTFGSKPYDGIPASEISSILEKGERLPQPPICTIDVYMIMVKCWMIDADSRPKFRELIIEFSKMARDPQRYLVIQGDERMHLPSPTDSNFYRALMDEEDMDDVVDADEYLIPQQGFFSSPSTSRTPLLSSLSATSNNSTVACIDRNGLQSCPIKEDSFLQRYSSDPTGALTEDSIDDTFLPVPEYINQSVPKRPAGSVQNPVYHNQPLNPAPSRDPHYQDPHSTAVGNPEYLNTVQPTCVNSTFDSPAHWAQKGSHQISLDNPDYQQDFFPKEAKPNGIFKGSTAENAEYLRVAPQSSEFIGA

| IC50 [1, 5] [µM] | IC50 [1, 6] [µM] | IC50 [2] [µM] | IC50 [3] [µM] | IC50 [4] [µM] | IC50 ([4]; Homo sapiens, OCI-Ly10, 72 h) [µM] | Compound |
| --- | --- | --- | --- | --- | --- | --- |
| ≤ 0.01 | 0.0004 | ≤ 0.01 | 0.1 to 1 | 0.01 to 0.1 |  | COc1ccccc1C(=O)NCc1ccc(-c2nn(C3CCC(O)CC3)c3ncnc(N)c23)cc1 (single isomer, unassigned) [Example 23-isomer2, N-[[4-[4-amino-1-(4-hydroxycyclohexyl)pyrazolo[3,4-d]pyrimidin-3-yl]phenyl]methyl]-2-methoxy-benzamide] |
| ≤ 0.01 |  | ≤ 0.01 | 0.1 to 1 | 0.1 to 1 |  | COc1ccccc1C(=O)NCc1ccc(-c2nn(C3CCC(C)(O)CC3)c3ncnc(N)c23)cc1 (single isomer, unassigned) [Example 91, N-[[4-[4-amino-1-(4-hydroxy-4-methyl-cyclohexyl)pyrazolo[3,4-d]pyrimidin-3-yl]phenyl]methyl]-2-methoxy-benzamide] |
| ≤ 0.01 |  | ≤ 0.01 | 0.1 to 1 | 0.01 to 0.1 |  | COc1ccccc1C(=O)NCc1ccc(-c2nn(C3CCC(C)(O)CC3)c3ncnc(N)c23)cc1 (single isomer, unassigned) [Example 92, N-[[4-[4-Amino-1-(4-hydroxy-4-methyl-cyclohexyl)pyrazolo[3,4-d]pyrimidin-3-yl]phenyl]methyl]-2-methoxy-benzamide] |
| ≤ 0.01 |  | ≤ 0.01 | 0.1 to 1 |  | 0.01 to 0.1 | COc1ccc(F)cc1C(=O)NCc1ccc(-c2nn(C3CCC(C)(O)CC3)c3ncnc(N)c23)cc1 (single isomer, unassigned) [Example 94, N-[[4-[4-Amino-1-(4-hydroxy-4-methyl-cyclohexyl)pyrazolo[3,4-d]pyrimidin-3-yl]phenyl]methyl]-5-fluoro-2-methoxy-benzamide] |
| ≤ 0.01 |  | ≤ 0.01 | 0.1 to 1 | 0.01 to 0.1 |  | COc1ccc(F)cc1C(=O)NCc1ccc(-c2nn(C3CCC(C)(O)CC3)c3ncnc(N)c23)cc1 (single isomer, unassigned) [Example 95, N-[[4-[4-Amino-1-(4-hydroxy-4-methyl-cyclohexyl)pyrazolo[3,4-d]pyrimidin-3-yl]phenyl]methyl]-5-fluoro-2-methoxy-benzamide] |
| ≤ 0.01 |  | ≤ 0.01 | 0.1 to 1 | 0.01 to 0.1 |  | COc1ccccc1C(=O)NCc1ccc(-c2nn(C3CCC(C(=O)N(C)C)CC3)c3ncnc(N)c23)cc1 (single isomer, unassigned; isomer 1) [33-isomer 1] |
| ≤ 0.01 | 0.0008 | ≤ 0.01 | 0.1 to 1 |  | 0.01 to 0.1 | COc1ccc(F)cc1C(=O)NCc1ccc(-c2nn(C3CCCC3)c3ncnc(N)c23)cc1 [Example 4, N-[[4-(4-Amino-1-cyclopentyl-pyrazolo[3,4-d]pyrimidin-3-yl)phenyl]methyl]-5-fluoro-2-methoxy-benzamide] |
| 0.01 to 0.1 |  | 0.01 to 0.1 | 1 to 10 |  | 0.1 to 1 | COc1ccccc1C(=O)NCc1ccc(-c2nn(C3CCCO3)c3ncnc(N)c23)cc1 (stereo not drawn) [Example 5, N-[[4-(4-amino-1-tetrahydrofuran-2-yl-pyrazolo[3,4-d]pyrimidin-3-yl)phenyl]methyl]-2-methoxy-benzamide] |
| ≤ 0.01 |  | ≤ 0.01 | 1 to 10 |  | 0.1 to 1 | CCOc1ccccc1C(=O)NCc1ccc(-c2nn(C3CCCC3)c3ncnc(N)c23)cc1 [Example 7, N-[[4-(4-amino-1-cyclopentyl-pyrazolo[3,4-d]pyrimidin-3-yl)phenyl]methyl]-2-ethoxy-benzamide] |
| 0.01 to 0.1 |  | ≤ 0.01 | 1 to 10 |  | 1 to 10 | CC(C)Oc1ccccc1C(=O)NCc1ccc(-c2nn(C3CCCC3)c3ncnc(N)c23)cc1 [Example 8, N-[[4-(4-amino-1-cyclopentyl-pyrazolo[3,4-d]pyrimidin-3-yl)phenyl]methyl]-2-isopropoxy-benzamide] |
| ≤ 0.01 |  | ≤ 0.01 | 1 to 10 |  | 0.01 to 0.1 | COc1ccc(Cl)cc1C(=O)NCc1ccc(-c2nn(C3CCCC3)c3ncnc(N)c23)cc1 [Example 11, N-[[4-(4-amino-1-cyclopentyl-pyrazolo[3,4-d]pyrimidin-3-yl)phenyl]methyl]-5-chloro-2-methoxy-benzamide] |
| ≤ 0.01 |  | ≤ 0.01 | 1 to 10 |  | 0.01 to 0.1 | COc1ccc(C)cc1C(=O)NCc1ccc(-c2nn(C3CCCC3)c3ncnc(N)c23)cc1 [Example 12, N-[[4-(4-amino-1-cyclopentyl-pyrazolo[3,4-d]pyrimidin-3-yl)phenyl]methyl]-2-methoxy-5-methyl-benzamide] |
| ≤ 0.01 |  | ≤ 0.01 | 1 to 10 |  | 0.1 to 1 | COc1ccccc1C(=O)NCc1ccc(-c2nn(C3CCC(=O)C3)c3ncnc(N)c23)cc1 (stereo not drawn) [Example 21, N-[[4-[4-amino-1-(3-oxocyclopentyl)pyrazolo[3,4-d]pyrimidin-3-yl]phenyl]methyl]-2-methoxy-benzamide] |
| ≤ 0.01 |  | ≤ 0.01 | 0.1 to 1 |  | 0.01 to 0.1 | COc1ccccc1C(=O)NCc1ccc(-c2nn(C3CCC4(C3)OCCO4)c3ncnc(N)c23)cc1 (stereo not drawn) [Example 25, N-[[4-[4-amino-1-(1,4-dioxaspiro[4.4]nonan-8-yl)pyrazolo[3,4-d]pyrimidin-3-yl]phenyl]methyl]-2-methoxy-benzamide] |
| 0.01 to 0.1 |  | ≤ 0.01 | 0.1 to 1 |  | 0.1 to 1 | COc1ccccc1C(=O)NCc1ccc(-c2nn(C3CCC(=O)CC3)c3ncnc(N)c23)cc1 [Example 26, N-[[4-[4-amino-1-(4-oxocyclohexyl)pyrazolo[3,4-d]pyrimidin-3-yl]phenyl]methyl]-2-methoxy-benzamide] |
| 0.01 to 0.1 |  | 0.01 to 0.1 | 0.1 to 1 |  | 0.1 to 1 | COc1ccncc1C(=O)NCc1ccc(-c2nn(C3CCCC3)c3ncnc(N)c23)cc1 [Example 27, N-[[4-(4-amino-1-cyclopentyl-pyrazolo[3,4-d]pyrimidin-3-yl)phenyl]methyl]-4-methoxy-pyridine-3-carboxamide] |
| 0.01 to 0.1 |  | 0.01 to 0.1 | 0.1 to 1 |  | 0.1 to 1 | CNC1CCC(n2nc(-c3ccc(CNC(=O)c4ccccc4OC)cc3)c3c(N)ncnc32)CC1 (stereo not drawn) [Example 28, N-[[4-[4-amino-1-[4-(methylamino)cyclohexyl]pyrazolo[3,4-d]pyrimidin-3-yl]phenyl]methyl]-2-methoxy-benzamide] |
| ≤ 0.01 |  | ≤ 0.01 | 0.1 to 1 |  | 0.1 to 1 | COc1ccccc1C(=O)NCc1ccc(-c2nn(C3CCOCC3)c3ncnc(N)c23)cc1 [Example 29, N-[[4-(4-amino-1-tetrahydropyran-4-yl-pyrazolo[3,4-d]pyrimidin-3-yl)phenyl]methyl]-2-methoxy-benzamide] |
| ≤ 0.01 |  | ≤ 0.01 | 0.1 to 1 |  | 0.01 to 0.1 | COc1ccccc1C(=O)NCc1ccc(-c2nn(C3CCCC(=O)C3)c3ncnc(N)c23)cc1 (stereo not drawn) [Example 31, N-[[4-[4-amino-1-(3-oxocyclohexyl)pyrazolo[3,4-d]pyrimidin-3-yl]phenyl]methyl]-2-methoxy-benzamide] |
